From patent US9833446B2, “Hedgehog pathway inhibition for cartilage tumor and metachondromatosis treatment” (Rhode Island Hospital, priority 2012, dated 2017)
“Also recorded” adds a separate entry of the source.

Legend:
[1] = tested on: ATDC5 cells; test: q-PCR of Ihh and Pthrp expression in inhibitor-treated parental ATDC5 cells; assay type: cell-based, murine; conditions: PD173074 10 nM, UO126 1 μM, n=3, p<0.05
Text: (§1) FIG. 4a, Left panel, is a bar graph of qPCR results showing increased Col2α1, Col10α1, Ihh, and Pthrp expression in laser-captured cartilaginous cells from exostoses, compared with normal articular cartilage cells (n=4, *p<0.05, Student t test). FIG. 4a, Right panel, is a series of photomicrographs showing immunostaining of paraffin sections from Perichondrial Groove of Ranvier region of Ctsk-KO and Control mice. Note the decreased number of p-Erk+ cells, but increased Ihh expression in Ctsk-KO, compared with Control, mice. FIG. 4b, Left Panel, is a photograph of an immunoblot showing Shp2 levels in ATDC5 chondroprogenitor cell lines stably expressing shRNAs against murine Ptpn11 (ATDC5-KD1, ATDC5-KD2, respectively) or a scrambled control hairpin. […] FIG. 4c is a bar graph showing that FGFR (PD173074, 10 nM) or MEK (UO126, 1 μM) inhibitor treatment of parental ATDC5 cells enhances Ihh and Pthrp expression, as shown by q-PCR (n=3, *p<0.05, Student t test). […] Images of representative posterior paws (i-iv) and knese (v-vii) taken pre-treatment (i, iii, v, vii) and post-treatment with vehicle (ii, vi) or Smoothened inhibitor (SMOi) (iv, viii) for 4 weeks. Note continued development of exostoses and endochromas in Vehicle-treated mice, and their amelioration in SMOi-treated group (arrows). Also, see FIGS. 7a,b and 8a,b.
Parental ATDC5 cells were purchased from the ATCC and cultured in complete DMEM/F12 medium (1:1) (Invitrogen) as described46. ATDC5 cells stably expressing short hairpin RNAs against murine Shp2 • (oligoA:5′[…] TCTGAATCTT TTTGGAAA (SEQ ID NO:1)); • Oligo B: 5-[…] (SEQ ID NO:2)) or its scrambled control were established by using pSuper(retro)/puro retroviral vector (Oligoengine, Inc) and pEcopac.
(§2) Quantitative RT-PCR. RNA was extracted from cultured cells or cartilage lesions captured by laser dissection by using the RNeasy kit (Qiagen). cDNA was synthesized using iScript™cDNA Synthesis Kit (Bio-Rad) and q-PCR was performed by using the RT2SYBR®Green qPCR kit. All values were normalized to Gapdh levels, and qPCR data are expressed as fold-increases compared with controls.
CCPs are rare, rendering detailed biochemical analyses of these cells unfeasible. We therefore tested the effects of Shp2 depletion in ATDC5 chondroid cells by stably expressing either of two shRNAs directed against murine Ptpn11. As in Ctsk-KO mice (FIG. 4a), Fgf18-evoked Erk activation was decreased, while Ihh and Pthrp levels were increased, in Shp2 deficient-ATDC5 cells, compared with cells expressing an shRNA control (FIG. 4b). Conversely, FGFR (PD173074) or MEK (UO126) inhibitor treatment of randomly growing, parental ATDC5 cells led to enhanced Ihh and Pthrp expression (FIG. 4c).

[2] = tested on: Hedgehog pathway; test: qPCR of epiphyseal cartilage after oral Smoothened inhibitor in wild type mice; assay type: in vivo; conditions: oral administration for 1 week, n=3, p<0.05
Text: FIG. 8a is a series of charts showing number and size of exostoses in Ctsk-KO mice post-treatment (n=5) with vehicle or Smoothened inhibitor (SMOi). […] FIG. 8b is a bar graph of qPCR results showing that oral administration of the Smoothened inhibitor SMOi to wild type mice for 1 week blunts the expression of Col2α1, Col10α1, Mmp13 and Gli1 in epiphyseal cartilage (n=3, *p<0.05, student t test).
as §2

[3] = tested on: Ctsk-KO mice; test: Smoothened inhibitor treatment of Ctsk-KO mice (metachondromatosis model), X-ray, μ-CT and histology; assay type: in vivo; conditions: for number of exostoses / size of exostoses: vs vehicle; for cartilage tumor condition / disease process in Shp2 mutant mice: systemic administration
Text: as §1
All animals used for these experiments are shown. […] SMOi was administered by oral gavage to Ctsk-KO mice beginning at post-natal week 5 for four weeks, and mice were euthanized at week 9.
Microcomputed Tomography (μ-CT) and x-Ray Analysis. X-ray images of the entire skeleton, knees, metatarsals and phalanges were obtained immediately after euthanasia by using a Faxitron X-ray system (Wheeling, Ill.). After fixation in 4% PFA, μ-CT images of skeletal tissues were scanned with the desktop microcomputer graphic imaging system (μ-CT40, Scanco Medical AG, CH). The number and size of exostoses were measured visually based on x-ray images.
Ihh signaling leads to Pthrp production. […] If so, then blocking or attenuating Ihh signaling might slow and/or prevent MC development. To test this hypothesis, Control (wild type) and Ctsk-KO mice (5/group) were treated with the Smoothened inhibitor PF-04449913 (100 μg/g body weight) or vehicle control (0.5% methylcellulose) by daily gavage, beginning at 5 weeks of age and continuing for the succeeding 4 weeks. The skeletal phenotype was examined by X-ray, μ-CT, and histological analysis at the end of experiment.

[4] = Ctsk-KO mice, 100 μg/g body weight, daily gavage, 4 weeks
[5] = Ctsk-KO mice, 100 μg/g body weight, daily gavage, 4 weeks, listed as SMOi

Row | Structure (SMILES) | Ihh expression (q-PCR) [1] | Pthrp expression (q-PCR) [1] | expression of Col2α1 in epiphyseal cartilage (qPCR) [2] | expression of Col10α1 in epiphyseal cartilage (qPCR) [2] | expression of Gli1 in epiphyseal cartilage (qPCR) [2] | expression of Mmp13 in epiphyseal cartilage (qPCR) [2] | function of multiple joints [3, 4] | tumor formation (Faxitron radiographs) ([3]; Ctsk-KO mice, 100 μg/g body weight, daily gavage, 4 weeks from week 5, vs vehicle (0.5% methylcellulose)) | number of exostoses [3, 4] | size of exostoses [3, 4] | number of exostoses [3, 5] | size of exostoses [3, 5] | cartilage tumor condition / disease process in Shp2 mutant mice [3] | cartilage tumor condition / disease process in Shp2 mutant mice ([3]; listed as PF-0444993)
1 | CCN(CC)CCCCNc1ncc2cc(-c3cc(OC)cc(OC)c3)c(NC(=O)NC(C)(C)C)nc2n1 [PD173074] | enhanced | enhanced | – | – | – | – | – | – | – | – | – | – | – | –
2 | CN1CC[C@@H](NC(=O)Nc2ccc(C#N)cc2)C[C@@H]1c1nc2ccccc2[nH]1 [PF-04449913] | – | – | blunts | blunts | blunts | blunts | improved | ameliorates tumor formation | significantly reduced | significantly reduced | reduction of number; also recorded: decrease in average number of exostoses | reduction of number and size | reduces the cartilage tumor condition | can stop or slow down the disease process
3 | N#CC(=C(/N)Sc1ccccc1N)/C(C#N)=C(/N)Sc1ccccc1N [UO126] | enhanced | enhanced | – | – | – | – | – | – | – | – | – | – | – | –
